The numbers were not newly measured in publication PMC3470887, “Protegrin-1 Inhibits Dengue NS2B-NS3 Serine Protease and Viral Replication in MK2 Cells” (Journal of Biomedicine and Biotechnology, 2012), which cites them from elsewhere.

The conditions of this series: mouse, iv; cited from earlier work.

As for `CC(C)C[C@H](NC(=O)[C@H](CCCNC(=N)N)NC(=O)CNC(=O)CNC(=O)[C@@H](N)CCCNC(=N)N)C(=O)N[C@H]1CSSC[C@@H](C(=O)N[C@H](C(=O)NCC(=O)N[C@@H](CCCNC(=N)N)C(N)=O)C(C)C)NC(=O)[C@H](C(C)C)NC(=O)[C@@H]2CSSC[C@H](NC(=O)[C@H](Cc3ccc(O)cc3)NC1=O)C(=O)N[C@@H](CCCNC(=N)N)C(=O)N[C@@H](CCCNC(=N)N)C(=O)N[C@@H](CCCNC(=N)N)C(=O)N[C@@H](Cc1ccccc1)C(=O)N2` [PG-1], the “dose with low in vivo toxicity” value is reported as “up to 8 mg/kg”.
